Test results: patent US11453681B2, “Substituted eneoxindoles and uses thereof” (Gilead Sciences, Inc., priority 2019, dated 2022)

These molecules were tested against human HPK1 (MAP4K1) (Homo sapiens (Human), UniProt Q92918) (assay: HPK1 IC50 Assay). Settings: recombinant HPK1 kinase domain 0.15 nM, synthetic peptide substrate STK S1, 3 hours at 25° C., time-resolved fluorescence energy transfer; geometric mean of multiple experiments.
Assay type: biochemical
Procedure: The enzymatic activity of human HPK1 (MAP4K1) was monitored in a biochemical assay in the presence or absence of compounds and using a synthetic peptide substrate. An increase in phosphorylation of the peptide by HPK1 was indicative of its kinase activity.
Recombinant HPK1 kinase domain produced via baculovirus infection of insect cells was obtained from Proteros (Proteros Biostructures #PR-0322) and was pre-activated in the presence of 2 mM ATP (Sigma-Aldrich, cat #GE27-2056-01) and 2 mM magnesium chloride for 16 hours at 4° C. The protein reaction mixture was then loaded to a desalting column (Thermo Fisher Scientific, Cat #89889) to remove excess ATP. HPK1 was eluted with buffer containing 20 mM Tris (2-Amino-2-(hydroxymethyl)propane-1,3-diol) pH 8.0, 150 mM NaCl, 2 mM dithiothreitol and 5% glycerol, and was frozen at −80° C. for later use. HPK1 dual phosphorylation was confirmed by mass spectrometry.
Ten nanoliters of test compounds dissolved in DMSO at various concentrations were dispensed into a 384-well ProxiPlate (PerkinElmer #6008289). Five microliters of a solution of recombinant HPK1 diluted in HPK1 kinase assay buffer (50 mM BES [N,N-Bis(2-hydroxyethyl)-2-aminoethanesulfonic acid], pH 7.0; 10 mM magnesium chloride; 0.01% Triton X-100; 1 mM dithiothreitol; 0.01% bovine serum albumin; 0.1 mM sodium orthovanadate) was added to the compound-containing plate and was incubated for 15 minutes at 25° C. Five microliters of a mixture of ATP (Sigma-Aldrich #A6559) and peptide substrate STK Si (Cisbio #61ST1BLC) diluted in HPK1 kinase assay buffer was then added to start the reaction. Final concentrations were 0.15 nM for HPK1, […], and 1 […]. The reaction mixture was incubated at 25° C. for 3 hours and was stopped with the addition of 10 μl of an EDTA (Ethylenediaminetetraacetic acid)-containing detection buffer (Cisbio #62SDBRDF) supplemented with Europium cryptate-labeled anti-phospho-serine/threonine antibodies (Cisbio #62ST1PEJ) and XL665-labeled streptavidin (Cisbio #610SAXLG). The mixture was incubated for 16 hours at room temperature and peptide phosphorylation was measured by time-resolved fluorescence energy transfer (665 nm/620 nm) on an Envision plate reader (PerkinElmer).
Data in Table 1 were normalized based on positive (staurosporine) and negative (DMSO) controls. Least squares curve fittings were performed using a four-parameter variable slope nonlinear regression model. IC50 is defined as the concentration of compound required to inhibit 50% of maximum phosphorylation. IC50 values from multiple experiments were averaged by geometric mean and the standard deviation was calculated.

Chain of human HPK1 (MAP4K1) (Q92918 17-274): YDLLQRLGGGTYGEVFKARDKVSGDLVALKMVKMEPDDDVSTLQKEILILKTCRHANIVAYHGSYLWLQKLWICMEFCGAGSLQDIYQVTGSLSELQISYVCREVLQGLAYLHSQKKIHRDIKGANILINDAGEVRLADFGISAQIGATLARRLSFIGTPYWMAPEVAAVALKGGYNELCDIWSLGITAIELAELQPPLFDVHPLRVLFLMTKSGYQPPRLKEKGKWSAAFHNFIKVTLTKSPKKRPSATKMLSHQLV

SMILES | IC50 [pM]
Cc1c(-c2ccc3c(c2)/C(=C/c2cc4cnccc4[nH]2)C(=O)N3)ccc2c1NC(=O)CO2 [Compound C39, (Z)-6-(3-((1H-pyrrolo[3,2-c]pyridin-2-yl)methylene)-2-oxoindolin-5-yl)-5-methyl-2H-benzo[b][1,4]oxazin-3(4H)-one] | 7030
Cc1cc2c(cc1-c1cnc3c(c1C)NCCO3)/C(=C/c1cc3cnccc3[nH]1)C(=O)N2 [Compound C40, (Z)-3-((1H-pyrrolo[3,2-c]pyridin-2-yl)methylene)-6-methyl-5-(8-methyl-2,3-dihydro-1H-pyrido[2,3-b][1,4]oxazin-7-yl)indolin-2-one] | 70
Cc1cc2c(cc1-c1cnc3c(c1)NCCO3)/C(=C/c1cc3cnccc3[nH]1)C(=O)N2 [Compound C41, (Z)-3-((1H-pyrrolo[3,2-c]pyridin-2-yl)methylene)-5-(2,3-dihydro-1H-pyrido[2,3-b][1,4]oxazin-7-yl)-6-methylindolin-2-one] | 5730
Cc1c(-c2cnc3c(c2)NCCO3)cc(F)c2c1/C(=C/c1cc3cnccc3[nH]1)C(=O)N2 [Compound C42, (Z)-3-((1H-pyrrolo[3,2-c]pyridin-2-yl)methylene)-5-(2,3-dihydro-1H-pyrido[2,3-b][1,4]oxazin-7-yl)-7-fluoro-4-methylindolin-2-one] | 9300
Cc1c(-c2cc3c(cc2F)NC(=O)/C3=C\c2cc3ccncc3[nH]2)cnc2c1NCCO2 [Compound C43, (Z)-3-((1H-pyrrolo[2,3-c]pyridin-2-yl)methylene)-6-fluoro-5-(8-methyl-2,3-dihydro-1H-pyrido[2,3-b][1,4]oxazin-7-yl)indolin-2-one] | 130
Cc1c(-c2cc3c(cc2F)NC(=O)/C3=C\c2cc3ncccc3[nH]2)cnc2c1NCCO2 [Compound C44, (Z)-3-((1H-pyrrolo[3,2-b]pyridin-2-yl)methylene)-6-fluoro-5-(8-methyl-2,3-dihydro-1H-pyrido[2,3-b][1,4]oxazin-7-yl)indolin-2-one] | 50
Cc1c(-c2cc(F)c3c(c2)/C(=C/c2cc4ccncc4[nH]2)C(=O)N3)cnc2c1NCCO2 [Compound C45, (Z)-3-((1H-pyrrolo[2,3-c]pyridin-2-yl)methylene)-7-fluoro-5-(8-methyl-2,3-dihydro-1H-pyrido[2,3-b][1,4]oxazin-7-yl)indolin-2-one] | 170
Cc1c(-c2cc(F)c3c(c2)/C(=C/c2cc4ncccc4[nH]2)C(=O)N3)cnc2c1NCCO2 [Compound C46, (Z)-3-((1H-pyrrolo[3,2-b]pyridin-2-yl)methylene)-7-fluoro-5-(8-methyl-2,3-dihydro-1H-pyrido[2,3-b][1,4]oxazin-7-yl)indolin-2-one] | 50
Cc1c(-c2cnc3c(c2)/C(=C/c2cc4cnccc4[nH]2)C(=O)N3)cnc2c1NCCO2 [Compound C47, (Z)-3-((1H-pyrrolo[3,2-c]pyridin-2-yl)methylene)-5-(8-methyl-2,3-dihydro-1H-pyrido[2,3-b][1,4]oxazin-7-yl)-1,3-dihydro-2H-pyrrolo[2,3-b]pyridin-2-one] | 1130
Cc1c(-c2cc3c(cc2Cl)NC(=O)/C3=C\c2cc3cnccc3[nH]2)cnc2c1NCCO2 [Compound C48, (Z)-3-((1H-pyrrolo[3,2-c]pyridin-2-yl)methylene)-6-chloro-5-(8-methyl-2,3-dihydro-1H-pyrido[2,3-b][1,4]oxazin-7-yl)indolin-2-one] | 160
Cc1c(-c2cc3c(cc2F)NC(=O)/C3=C\c2cc3cnccc3[nH]2)cnc2c1NCCO2 [Compound C49, (Z)-3-((1H-pyrrolo[3,2-c]pyridin-2-yl)methylene)-6-fluoro-5-(8-methyl-2,3-dihydro-1H-pyrido[2,3-b][1,4]oxazin-7-yl)indolin-2-one] | 160
Cc1c(-c2cc3c(cc2Cl)NC(=O)/C3=C\c2cc3ccccc3[nH]2)cnc2c1NCCO2 [Compound C50, (Z)-3-((1H-indol-2-yl)methylene)-6-chloro-5-(8-methyl-2,3-dihydro-1H-pyrido[2,3-b][1,4]oxazin-7-yl)indolin-2-one] | 190
